The results in this text go back to ChEMBL document CHEMBL6092162, “Identification of novel and potent triazoles targeting CYP51 for antifungal: Design, synthesis, and biological study” (Eur J Med Chem, 2024).

The structures appear in SMILES notation. In brackets after ≈: the same amount, converted by molar mass. A value given as a limit tells only on which side of the number the result lay.

For one assay, the system named is Candida parapsilosis. Nature of the assay: Antifungal activity against Candida parapsilosis GIM 2.190 assessed as inhibition of fungal growth by CLSI M27-A3 guidelines based method. Type of assay: functional. The conditions noted are these: Lodderomyces parapsilosis.
For `CN(Cc1ccc(N2CCN(Cc3ccc(OC(F)(F)F)cc3)CC2)cc1)CC(O)(Cn1cncn1)c1ccc(F)cc1F` (centres undefined), the MIC80 stood at 0.025 µg/mL (≈ 0.0405 µM).
Consider `CN(Cc1ccc(N2CCN(Cc3cccc(Br)c3)CC2)cc1)CC(O)(Cn1cncn1)c1ccc(F)cc1F` (centres undefined), for which the MIC80 turned out to be 0.006 µg/mL (≈ 0.00981 µM).
For the molecule `CN(Cc1ccc(N2CCN(Cc3ccccc3Br)CC2)cc1)CC(O)(Cn1cncn1)c1ccc(F)cc1F` (centres undefined), the MIC80 came to 0.006 µg/mL (≈ 0.00981 µM).

The test system of the next assay is Candida tropicalis. Nature of the assay: Antifungal activity against Candida tropicalis GIM 2.183 assessed as inhibition of fungal growth by CLSI M27-A3 guidelines based method. Type of assay: functional.
Settings: not given
For `CN(Cc1ccc(N2CCN(Cc3ccc(OC(F)(F)F)cc3)CC2)cc1)CC(O)(Cn1cncn1)c1ccc(F)cc1F` (centres undefined), the MIC80 came out at 0.006 µg/mL (≈ 0.00973 µM).
Consider `CN(Cc1ccc(N2CCN(Cc3cccc(Br)c3)CC2)cc1)CC(O)(Cn1cncn1)c1ccc(F)cc1F` (centres undefined), for which the MIC80 is 0.013 µg/mL (≈ 0.0213 µM).
In the case of `CN(Cc1ccc(N2CCN(Cc3ccccc3Br)CC2)cc1)CC(O)(Cn1cncn1)c1ccc(F)cc1F` (centres undefined), the MIC80 is 0.013 µg/mL (≈ 0.0213 µM).

A further assay concerns Candida albicans. Nature of the assay: Antifungal activity against fluconazole-resistant Candida albicans clinical isolate 901 assessed as inhibition of fungal growth by CLSI M27-A3 guidelines based method. Type of assay: functional.
Settings: not given
As to `CN(Cc1ccc(N2CCN(Cc3ccc(OC(F)(F)F)cc3)CC2)cc1)CC(O)(Cn1cncn1)c1ccc(F)cc1F` (centres undefined), the MIC80 was greater than 64 µg/mL.
Same read-out and setting: next, `CN(Cc1ccc(N2CCN(Cc3cccc(Br)c3)CC2)cc1)CC(O)(Cn1cncn1)c1ccc(F)cc1F` (centres undefined): greater than 64 µg/mL.
Turning to `CN(Cc1ccc(N2CCN(Cc3ccccc3Br)CC2)cc1)CC(O)(Cn1cncn1)c1ccc(F)cc1F` (centres undefined), the MIC80 was greater than 64 µg/mL.

The next assay relates to Nakaseomyces glabratus. Nature of the assay: Antifungal activity against Candida glabrata assessed as inhibition of fungal growth by CLSI M27-A3 guidelines based method.
Settings: not given
Type of assay: functional.
For `CN(Cc1ccc(N2CCN(Cc3ccc(OC(F)(F)F)cc3)CC2)cc1)CC(O)(Cn1cncn1)c1ccc(F)cc1F` (centres undefined), the MIC80 turned out to be 0.1 µg/mL (≈ 0.162 µM).
With `CN(Cc1ccc(N2CCN(Cc3cccc(Br)c3)CC2)cc1)CC(O)(Cn1cncn1)c1ccc(F)cc1F` (centres undefined), the MIC80 was 0.2 µg/mL (≈ 0.327 µM).
For the molecule `CN(Cc1ccc(N2CCN(Cc3ccccc3Br)CC2)cc1)CC(O)(Cn1cncn1)c1ccc(F)cc1F` (centres undefined), the MIC80 worked out at 0.1 µg/mL (≈ 0.164 µM).

The test system of a further assay is Pichia kudriavzevii. Description: Antifungal activity against Candida krusei GIM 2.1 assessed as inhibition of fungal growth by CLSI M27-A3 guidelines based method. Type of assay: functional.
Settings: not given
Regarding `CN(Cc1ccc(N2CCN(Cc3ccc(OC(F)(F)F)cc3)CC2)cc1)CC(O)(Cn1cncn1)c1ccc(F)cc1F` (centres undefined), the MIC80 amounted to 0.1 µg/mL (≈ 0.162 µM).
For `CN(Cc1ccc(N2CCN(Cc3cccc(Br)c3)CC2)cc1)CC(O)(Cn1cncn1)c1ccc(F)cc1F` (centres undefined), the MIC80 is 0.1 µg/mL (≈ 0.164 µM).
Turning to `CN(Cc1ccc(N2CCN(Cc3ccccc3Br)CC2)cc1)CC(O)(Cn1cncn1)c1ccc(F)cc1F` (centres undefined), the MIC80 is 0.1 µg/mL (≈ 0.164 µM).

The subject of another assay is Candida albicans. Nature of the assay: Antifungal activity against Candida albicans GIM 2.194 assessed as inhibition of fungal growth by CLSI M27-A3 guidelines based method. Type of assay: functional.
Settings: not given
As for `CN(Cc1ccc(N2CCN(Cc3ccc(OC(F)(F)F)cc3)CC2)cc1)CC(O)(Cn1cncn1)c1ccc(F)cc1F` (centres undefined), the MIC80 turned out to be 0.013 µg/mL (≈ 0.0211 µM).
As to `CN(Cc1ccc(N2CCN(Cc3cccc(Br)c3)CC2)cc1)CC(O)(Cn1cncn1)c1ccc(F)cc1F` (centres undefined), the MIC80 worked out at 0.013 µg/mL (≈ 0.0213 µM).
On the same count and under the same terms, under `CN(Cc1ccc(N2CCN(Cc3ccccc3Br)CC2)cc1)CC(O)(Cn1cncn1)c1ccc(F)cc1F` (centres undefined) stands 0.006 µg/mL (≈ 0.00981 µM).

The subject of a further assay is Candida albicans. Nature of the assay: Antifungal activity against fluconazole-resistant Candida albicans clinical isolate 904 assessed as inhibition of fungal growth by CLSI M27-A3 guidelines based method.
Settings: not given
Type of assay: functional.
In the case of `CN(Cc1ccc(N2CCN(Cc3ccc(OC(F)(F)F)cc3)CC2)cc1)CC(O)(Cn1cncn1)c1ccc(F)cc1F` (centres undefined), the MIC80 was 32 µg/mL (≈ 51.9 µM).
As for `CN(Cc1ccc(N2CCN(Cc3cccc(Br)c3)CC2)cc1)CC(O)(Cn1cncn1)c1ccc(F)cc1F` (centres undefined), the MIC80 stood at 16 µg/mL (≈ 26.2 µM).
For `CN(Cc1ccc(N2CCN(Cc3ccccc3Br)CC2)cc1)CC(O)(Cn1cncn1)c1ccc(F)cc1F` (centres undefined), the MIC80 is 16 µg/mL (≈ 26.2 µM).

The subject of the next assay is Candida albicans. Description: Antifungal activity against fluconazole-resistant Candida albicans clinical isolate 100 assessed as inhibition of fungal growth by CLSI M27-A3 guidelines based method.
Settings: not given
Type of assay: functional.
As to `CN(Cc1ccc(N2CCN(Cc3ccc(OC(F)(F)F)cc3)CC2)cc1)CC(O)(Cn1cncn1)c1ccc(F)cc1F` (centres undefined), the MIC80 is 8 µg/mL (≈ 13 µM).
On the same count and under the same terms, under `CN(Cc1ccc(N2CCN(Cc3cccc(Br)c3)CC2)cc1)CC(O)(Cn1cncn1)c1ccc(F)cc1F` (centres undefined) stands 8 µg/mL (≈ 13.1 µM); under `CN(Cc1ccc(N2CCN(Cc3ccccc3Br)CC2)cc1)CC(O)(Cn1cncn1)c1ccc(F)cc1F` (centres undefined), 4 µg/mL (≈ 6.54 µM).

The next assay concerns Candida albicans. Nature of the assay: Antifungal activity against fluconazole-resistant Candida albicans clinical isolate 103 assessed as inhibition of fungal growth by CLSI M27-A3 guidelines based method. Type of assay: functional.
Settings: not given
Consider `CN(Cc1ccc(N2CCN(Cc3ccc(OC(F)(F)F)cc3)CC2)cc1)CC(O)(Cn1cncn1)c1ccc(F)cc1F` (centres undefined), for which the MIC80 was determined as 32 µg/mL (≈ 51.9 µM).
In the case of `CN(Cc1ccc(N2CCN(Cc3cccc(Br)c3)CC2)cc1)CC(O)(Cn1cncn1)c1ccc(F)cc1F` (centres undefined), the MIC80 stood at 32 µg/mL (≈ 52.3 µM).
As for `CN(Cc1ccc(N2CCN(Cc3ccccc3Br)CC2)cc1)CC(O)(Cn1cncn1)c1ccc(F)cc1F` (centres undefined), the MIC80 was found to be 16 µg/mL (≈ 26.2 µM).

A further assay concerns Cryptococcus neoformans. Nature of the assay: Antifungal activity against Cryptococcus neoformans CGMCC 2.3161 assessed as inhibition of fungal growth by CLSI M27-A3 guidelines based method.
Settings: not given
Type of assay: functional.
As to `CN(Cc1ccc(N2CCN(Cc3ccc(OC(F)(F)F)cc3)CC2)cc1)CC(O)(Cn1cncn1)c1ccc(F)cc1F` (centres undefined), the MIC80 is 0.1 µg/mL (≈ 0.162 µM).
As to `CN(Cc1ccc(N2CCN(Cc3cccc(Br)c3)CC2)cc1)CC(O)(Cn1cncn1)c1ccc(F)cc1F` (centres undefined), the MIC80 was determined as 0.1 µg/mL (≈ 0.164 µM).

Another assay concerns Candida albicans. Nature of the assay: Antifungal activity against fluconazole and iodiconazole resistant Candida albicans clinical isolate 17# assessed as inhibition of fungal growth by CLSI M27-A3 guidelines based method.
Settings: not given
Type of assay: functional.
In the case of `CN(Cc1ccc(N2CCN(Cc3ccc(OC(F)(F)F)cc3)CC2)cc1)CC(O)(Cn1cncn1)c1ccc(F)cc1F` (centres undefined), the MIC80 is 0.125 µg/mL (≈ 0.203 µM).
For the molecule `CN(Cc1ccc(N2CCN(Cc3cccc(Br)c3)CC2)cc1)CC(O)(Cn1cncn1)c1ccc(F)cc1F` (centres undefined), the MIC80 amounted to 0.063 µg/mL (≈ 0.103 µM).
Take `CN(Cc1ccc(N2CCN(Cc3ccccc3Br)CC2)cc1)CC(O)(Cn1cncn1)c1ccc(F)cc1F` (centres undefined): the MIC80 worked out at 0.063 µg/mL (≈ 0.103 µM).

The next assay has as its system Candida albicans. Description: Antifungal activity against fluconazole-resistant Candida albicans clinical isolate 632 assessed as inhibition of fungal growth by CLSI M27-A3 guidelines based method. Type of assay: functional.
Settings: not given
For `CN(Cc1ccc(N2CCN(Cc3ccc(OC(F)(F)F)cc3)CC2)cc1)CC(O)(Cn1cncn1)c1ccc(F)cc1F` (centres undefined), the MIC80 came out at 32 µg/mL (≈ 51.9 µM).
On to `CN(Cc1ccc(N2CCN(Cc3cccc(Br)c3)CC2)cc1)CC(O)(Cn1cncn1)c1ccc(F)cc1F` (centres undefined), for which the MIC80 is 8 µg/mL (≈ 13.1 µM).
As to `CN(Cc1ccc(N2CCN(Cc3ccccc3Br)CC2)cc1)CC(O)(Cn1cncn1)c1ccc(F)cc1F` (centres undefined), the MIC80 is 8 µg/mL (≈ 13.1 µM).

In a further assay the test system is Candida albicans. Description: Antifungal activity against fluconazole-resistant Candida albicans clinical isolate 311 assessed as inhibition of fungal growth by CLSI M27-A3 guidelines based method.
Settings: not given
Type of assay: functional.
As to `CN(Cc1ccc(N2CCN(Cc3ccc(OC(F)(F)F)cc3)CC2)cc1)CC(O)(Cn1cncn1)c1ccc(F)cc1F` (centres undefined), the MIC80 was greater than 64 µg/mL.
Regarding `CN(Cc1ccc(N2CCN(Cc3cccc(Br)c3)CC2)cc1)CC(O)(Cn1cncn1)c1ccc(F)cc1F` (centres undefined), the MIC80 came out at 32 µg/mL (≈ 52.3 µM).
In the case of `CN(Cc1ccc(N2CCN(Cc3ccccc3Br)CC2)cc1)CC(O)(Cn1cncn1)c1ccc(F)cc1F` (centres undefined), the MIC80 is 32 µg/mL (≈ 52.3 µM).

Another assay concerns Candida albicans. Nature of the assay: Antifungal activity against fluconazole-resistant Candida albicans CaR assessed as inhibition of fungal growth by CLSI M27-A3 guidelines based method. Type of assay: functional.
Settings: not given
Regarding `CN(Cc1ccc(N2CCN(Cc3ccc(OC(F)(F)F)cc3)CC2)cc1)CC(O)(Cn1cncn1)c1ccc(F)cc1F` (centres undefined), the MIC80 worked out at 0.063 µg/mL (≈ 0.102 µM).
Turning to `CN(Cc1ccc(N2CCN(Cc3cccc(Br)c3)CC2)cc1)CC(O)(Cn1cncn1)c1ccc(F)cc1F` (centres undefined), the MIC80 was 0.063 µg/mL (≈ 0.103 µM).
`CN(Cc1ccc(N2CCN(Cc3ccccc3Br)CC2)cc1)CC(O)(Cn1cncn1)c1ccc(F)cc1F` (centres undefined): the MIC80 was found to be 0.063 µg/mL (≈ 0.103 µM).

A further assay deals with Candida albicans. Nature of the assay: Antifungal activity against Candida albicans SC5314 assessed as inhibition of fungal growth by CLSI M27-A3 guidelines based method. Type of assay: functional.
Settings: not given
Consider `CN(Cc1ccc(N2CCN(Cc3ccc(OC(F)(F)F)cc3)CC2)cc1)CC(O)(Cn1cncn1)c1ccc(F)cc1F` (centres undefined), for which the MIC80 stood at 0.013 µg/mL (≈ 0.0211 µM).
The same measure, in the same setting: next, `CN(Cc1ccc(N2CCN(Cc3cccc(Br)c3)CC2)cc1)CC(O)(Cn1cncn1)c1ccc(F)cc1F` (centres undefined): 0.013 µg/mL (≈ 0.0213 µM).
`CN(Cc1ccc(N2CCN(Cc3ccccc3Br)CC2)cc1)CC(O)(Cn1cncn1)c1ccc(F)cc1F` (centres undefined): the MIC80 was found to be 0.013 µg/mL (≈ 0.0213 µM).

As usually defined, the MIC80 is the lowest concentration that inhibits either 80% of growth or 80% of the strains tested, depending on the study.
